Experiment: Human HepG2 cell viability assay in 384 well format
Format: toxicity, cell-based
Design: dose 125 nL, time 70.5 hour; concentration not given beside the values
Conditions: HepG2 cells, read-out: Inhibition
`CSc1ccsc1C(=O)NC(C)c1ccc2c(c1)CCC(=O)N2` (configuration not stated) gave a cytotoxicity at 70.5 h of 11.2%. With `CNC(=O)C1(C)CN(c2nnc(C)c3ccccc23)CCO1` (configuration not stated) the cytotoxicity at 70.5 h was -6.81%. For `NC(=O)c1csc(N2CCCC(c3n[nH]c(=O)n3-c3ccccc3)C2)n1` (configuration not stated), the cytotoxicity at 70.5 h was -6.33%. With `CCc1cnc(N2CCN(CC(=O)Nc3c(C)n[nH]c3C)CC2)s1` the cytotoxicity at 70.5 h was -3.55%. Compound `CN1C(=O)C2(CC(=O)Nc3[nH]ncc32)c2cc(F)ccc21` (configuration not stated) has a cytotoxicity at 70.5 h of -19.4%. Work on `O=C(NCCCO)Nc1cnc2cc(Cl)ccc2c1O` yielded a cytotoxicity at 70.5 h of -1.44%. Compound `CN(C(=O)c1ccncc1F)c1ccccc1S(C)(=O)=O` has a cytotoxicity at 70.5 h of -1.8%. Work on `FC(F)CN1CCOC(Cn2cccn2)C1` (configuration not stated) yielded a cytotoxicity at 70.5 h of -3.37%. Compound `O=C(Cn1ccnc1)N1C[C@@H]2CC[C@H](Oc3ccc(Cl)cc3)[C@@H]2C1` has a cytotoxicity at 70.5 h of 0.299%. Compound `CCCc1c(C2CCOC(C)(C)C2)nc(N)c(C#N)c1-c1cnn(C)c1` (configuration not stated) has a cytotoxicity at 70.5 h of -2.75%. `CCN(CC)S(=O)(=O)c1cnccc1N1CCN(C(C)C)CC1` showed a cytotoxicity at 70.5 h of 7.88%. In the case of `COc1ccc(Cl)cc1NCC(=O)N(Cc1ccccn1)C1CC1`, the cytotoxicity at 70.5 h is reported as -4.9%. In the case of `CC(C)O[C@H]1CN(Cc2cnc3c(-c4ccccc4)cnn3c2)C[C@@H]1O`, the cytotoxicity at 70.5 h is reported as -5.99%. In the case of `CCN1CCCC(c2nc(O)c3cc(C)ccc3n2)C1` (configuration not stated), the cytotoxicity at 70.5 h is reported as -8.23%. `N#CCCCS(=O)(=O)NC1(c2cccc(Cl)c2)CC1` gave a cytotoxicity at 70.5 h of -9.01%. Compound `Cc1cnc(-c2nc(C3CCCN(Cc4cccs4)C3)no2)cn1` (configuration not stated) has a cytotoxicity at 70.5 h of 23.7%. `CC1COCCN1C(=O)Cc1cc(Cl)c2c(c1)OCCO2` (configuration not stated) gave a cytotoxicity at 70.5 h of -12.3%. For `Cc1ccc(-c2cccc(-c3ccn(CCN4CCCC4)n3)c2)nn1`, the cytotoxicity at 70.5 h was -6.29%. For `Cc1csc(N2CCN(Cc3nccn3C)CC2C)n1` (configuration not stated), the cytotoxicity at 70.5 h was -16.3%. For `COCCN1CCC(CNC(=O)C2(C#N)CCCC2)CC1`, the cytotoxicity at 70.5 h was 17.6%. `Cc1ccc(C(=O)N2CCN(Cc3cccs3)CC2)n1C` gave a cytotoxicity at 70.5 h of -14.9%. `Cc1ccc(N2CCCN(C(=O)c3n[nH]c4c3CCC4)CC2)nn1` showed a cytotoxicity at 70.5 h of 1.32%. In the case of `Cc1cc(C(F)(F)F)n2nc(C3CCCN3C3CCSCC3)cc2n1` (configuration not stated), the cytotoxicity at 70.5 h is reported as -2.47%. Compound `CC(C(=O)NCC1CCN(c2ccncc2)CC1)S(C)(=O)=O` (configuration not stated) has a cytotoxicity at 70.5 h of -7.42%. Compound `O=C(NCCc1cccs1)[C@]12COC[C@H]1CN(C1CCOCC1)C2` has a cytotoxicity at 70.5 h of -6.34%. `O=C(NC[C@H]1OC[C@@H](NC(=O)c2ccccc2)[C@@H]1O)c1ccncc1` gave a cytotoxicity at 70.5 h of -0.603%. `Cc1oc(C(=O)O)cc1S(=O)(=O)Nc1ccc(Cl)cc1F` showed a cytotoxicity at 70.5 h of -0.71%. Work on `O=S(=O)(NCC1(c2cccs2)CCOCC1)c1cccnc1` yielded a cytotoxicity at 70.5 h of -6.99%. For `Cc1n[nH]c(C)c1NC(=O)CN1CCCC1c1noc(C(C)C)n1` (configuration not stated), the cytotoxicity at 70.5 h was 15.2%. Compound `CC(C)c1nc(CC(=O)N2CCN(C)CC2c2ccccc2)cs1` (configuration not stated) has a cytotoxicity at 70.5 h of 12.9%. For `COc1ccc(C(=O)N2CCC(Nc3ccc(C)nn3)CC2)cc1`, the cytotoxicity at 70.5 h was 0.696%. With `CS(=O)(=O)CCc1ncnn1-c1ccc(F)c(Cl)c1` the cytotoxicity at 70.5 h was -2.51%. For `CC(C)CNC(=O)[C@H]1CCS(=O)(=O)[C@@H]2CN(Cc3ccc(F)cc3)C[C@H]12`, the cytotoxicity at 70.5 h was -10.2%. `COc1ccc(F)cc1-c1ccccc1CC1CNCCNC1=O` (configuration not stated) showed a cytotoxicity at 70.5 h of 2.28%. `Cn1cc(-c2nnn3c2COC(CNCC2CCOCC2)C3)cn1` (configuration not stated) gave a cytotoxicity at 70.5 h of -7.48%. `Cc1occc1C(=O)N1Cc2nccn2CC(CN(C)C)C1` (configuration not stated) gave a cytotoxicity at 70.5 h of -8.13%. `Cc1noc([C@@H]2C[C@@H]3CCN(CC4CC4)C[C@H]3O2)n1` gave a cytotoxicity at 70.5 h of -4.17%. In the case of `Cc1cnn(C2CCCN(C(=O)c3cc(-c4ccco4)[nH]n3)C2)c1` (configuration not stated), the cytotoxicity at 70.5 h is reported as -11.8%. `CNC(=O)c1cccc(CN2CCC(N(C)Cc3ncc(C)o3)C2)c1` (configuration not stated) gave a cytotoxicity at 70.5 h of 22.2%. For `Cc1cccc(OCCNC(=O)Cn2ccc(C)cc2=O)c1`, the cytotoxicity at 70.5 h was -8.95%. With `Cc1ncc2c(n1)C1(CCN(C(=O)C(C)C)CC1)OCC2` the cytotoxicity at 70.5 h was -6.13%. `Cc1cc(C)n(CC2CN(CCC(=O)NC3CCCCC3)CCO2)n1` (configuration not stated) gave a cytotoxicity at 70.5 h of -9.5%. Work on `O=C(N1CCCCC1)N1CCN(CC(O)c2ccccc2)CC1` (configuration not stated) yielded a cytotoxicity at 70.5 h of -3.61%. Compound `CC(=O)N(C)Cc1ccccc1NC(=O)c1cnn(C)c1C` has a cytotoxicity at 70.5 h of -0.121%. `CSc1ccc(-n2ccnc2-c2cc3n(n2)CCNC3)cc1` gave a cytotoxicity at 70.5 h of 25.5%. For `N#Cc1cccnc1NC1CCN(c2ccccc2OC(F)F)C1=O` (configuration not stated), the cytotoxicity at 70.5 h was 17.8%. Compound `C=Cn1ncc(CN2C[C@@H]3CCCN3C[C@H]2Cc2ccccc2)c1C` has a cytotoxicity at 70.5 h of 14.6%. `Cc1noc(C(C)N2CCC(c3nc4ccccc4[nH]3)CC2)n1` (configuration not stated) showed a cytotoxicity at 70.5 h of -3.97%. Compound `COCC(=O)NC[C@H]1C[C@@H]2CCN1C[C@@H]2CN(C)c1ccccc1` has a cytotoxicity at 70.5 h of 0.807%. In the case of `O=C1NCCN(Cc2ccoc2)C1CC(=O)N1CCc2sccc2C1` (configuration not stated), the cytotoxicity at 70.5 h is reported as -0.766%. `Cc1ccc(CN2CCOC3(CCCN(C(=O)c4ccco4)C3)C2)s1` (configuration not stated) gave a cytotoxicity at 70.5 h of -10.7%. `CN(Cc1ccc2c(c1)OCO2)C(=O)Cn1cccnc1=O` showed a cytotoxicity at 70.5 h of 17.3%. With `CCOCCNC(=O)Cc1cccc(I)c1` the cytotoxicity at 70.5 h was 0.854%. For `CCN(Cc1cc(=O)n2cc(Br)ccc2n1)C1CC1`, the cytotoxicity at 70.5 h was -7.36%. In the case of `Cc1cc(NCCNS(=O)(=O)c2cccc(Cl)c2)nc(C)n1`, the cytotoxicity at 70.5 h is reported as -1%. Work on `Cc1cc(CC(C)NC2CCSCC2)[nH]n1` (configuration not stated) yielded a cytotoxicity at 70.5 h of -5.1%. With `Cc1ccccc1C1(C(=O)N2CCOC(C)C2)CCOCC1` (configuration not stated) the cytotoxicity at 70.5 h was -5.13%. For `CC1(C)Cc2cc(-c3cncn3CCNC3CCS(=O)(=O)C3)ccc2O1` (configuration not stated), the cytotoxicity at 70.5 h was -0.723%. `CCn1ncc(Br)c1CN(C)S(=O)(=O)c1ccc(C)cc1` showed a cytotoxicity at 70.5 h of 8.37%. `COc1cccc(CN2CC3(CCNCC3)CCC2=O)c1OC` showed a cytotoxicity at 70.5 h of 0.619%. With `Cn1cccc(NC(=O)N2CCC(Cc3ccccc3)C2)c1=O` (configuration not stated) the cytotoxicity at 70.5 h was 19.7%. Compound `O=C(CN1C(=O)CCC1=O)NCC1(O)CCc2ccccc21` (configuration not stated) has a cytotoxicity at 70.5 h of 1.38%. In the case of `Cc1cc2ccccc2n1CC(=O)N[C@@H](C)C(=O)O`, the cytotoxicity at 70.5 h is reported as -19.5%. `O=C(c1cccc2c1OCCO2)N1CCCC1c1noc(C2CC2)n1` (configuration not stated) gave a cytotoxicity at 70.5 h of -2.14%. Compound `CCc1n[nH]c(C2CN(C(=O)c3ccnc(C)n3)CCO2)n1` (configuration not stated) has a cytotoxicity at 70.5 h of 13.5%. Compound `CCN1CCC(CNc2nccc(C)n2)(N(C)C)CC1` has a cytotoxicity at 70.5 h of -3.2%. `Cn1nc2c(cc1=O)CN(Cc1nc(-c3cccs3)no1)CC2` gave a cytotoxicity at 70.5 h of -14.3%. Compound `O=C(O)Cn1ccc2c(Cl)cccc21` has a cytotoxicity at 70.5 h of -1.23%. `Cc1nn(CCC#N)c(C)c1CCC(=O)N(C)Cc1ccc(F)cc1F` showed a cytotoxicity at 70.5 h of -4.98%. `Cc1cc(NC(=O)C(C)Oc2ccc3c(c2)OCO3)no1` (configuration not stated) gave a cytotoxicity at 70.5 h of -6.37%. For `Cc1nn(C)c(C)c1C1CCCN1CCCc1nc2ccccc2o1` (configuration not stated), the cytotoxicity at 70.5 h was -8.55%. `CN1CCN(Cc2cnc3n2CCN(C(=O)c2cnccn2)C3)CC1` gave a cytotoxicity at 70.5 h of -4.26%. For `COc1c(C)cnc(CN2CCC(C(=O)N(C)C)CC2)c1C`, the cytotoxicity at 70.5 h was -23.8%. For `O=C(c1cnccn1)N1CCC(Cc2cnc3[nH]ccc3c2)CC1`, the cytotoxicity at 70.5 h was -2.92%. Work on `CCc1noc(CN2CCN(c3nccs3)CC2)n1` yielded a cytotoxicity at 70.5 h of 10.7%. For `CCOCc1ccccc1NC(=O)NCC(C)(O)c1ccsc1` (configuration not stated), the cytotoxicity at 70.5 h was -2.17%. With `COCC(=O)NC[C@]12COC[C@H]1CN(c1ncc(F)cn1)C2` the cytotoxicity at 70.5 h was -7.55%. Compound `COCCOc1ccc(CNc2nc3ccccc3o2)cn1` has a cytotoxicity at 70.5 h of -10.8%. `Cc1nc(C2CCN(C(=O)c3ccnn3C)CC2)c2sccn12` gave a cytotoxicity at 70.5 h of -3.95%. For `CCOC(=O)N(C)C1CCN(Cc2cnc3ccccn23)CC1`, the cytotoxicity at 70.5 h was -4.79%. In the case of `Cc1cc(O)nc(C2CCCN(Cc3ccncc3)C2)n1` (configuration not stated), the cytotoxicity at 70.5 h is reported as -0.0773%. Work on `Cn1ccnc1CN(Cc1ccccn1)Cc1ccccc1Cl` yielded a cytotoxicity at 70.5 h of 1.27%.
